Assay results reported in ChEMBL document CHEMBL5223066, “The medicinal chemistry of mitochondrial dysfunction: a critical overview of efforts to modulate mitochondrial health” (RSC Med Chem, 2021).

Key:
[1] = Cmax in rat at 3 mg/kg, iv; type: ADME, organism-based; parameters: dose 3 mg/kg, route iv; conditions: in vivo
[2] = Cmax in human CSF at 500 mg, po qd administered for 8 weeks; type: ADME, organism-based, Cerebrospinal fluid; parameters: time 8 weeks, dose 500 mg, route po
[3] = Cmax in human CSF at 1000 mg, po bid administered for 8 weeks; type: ADME, organism-based, Cerebrospinal fluid; parameters: dose 1000 mg, time 8 weeks, route po
[4] = Efflux ratio in dog MDCK-MDR1 cells; type: ADME, cell-based, Canis lupus familiaris
hERG (KCNH2) = hERG (KCNH2) (Homo sapiens, UniProt Q12809); assay: Inhibition of hERG at 30 uM relative to control; type: toxicity
[5] = Ratio of drug level in brain to blood in BALB/c mouse at 5 mg/kg, po; type: ADME, organism-based
[6] = Induction of mitophagy in human HeLa cells; type: functional, cell-based
[7] = Drug concentration in brain of mouse at 400 mg/kg, po qd; type: ADME, organism-based; conditions: in vivo, read-out: Ct

Chain of hERG (KCNH2) (Q12809 whole entry): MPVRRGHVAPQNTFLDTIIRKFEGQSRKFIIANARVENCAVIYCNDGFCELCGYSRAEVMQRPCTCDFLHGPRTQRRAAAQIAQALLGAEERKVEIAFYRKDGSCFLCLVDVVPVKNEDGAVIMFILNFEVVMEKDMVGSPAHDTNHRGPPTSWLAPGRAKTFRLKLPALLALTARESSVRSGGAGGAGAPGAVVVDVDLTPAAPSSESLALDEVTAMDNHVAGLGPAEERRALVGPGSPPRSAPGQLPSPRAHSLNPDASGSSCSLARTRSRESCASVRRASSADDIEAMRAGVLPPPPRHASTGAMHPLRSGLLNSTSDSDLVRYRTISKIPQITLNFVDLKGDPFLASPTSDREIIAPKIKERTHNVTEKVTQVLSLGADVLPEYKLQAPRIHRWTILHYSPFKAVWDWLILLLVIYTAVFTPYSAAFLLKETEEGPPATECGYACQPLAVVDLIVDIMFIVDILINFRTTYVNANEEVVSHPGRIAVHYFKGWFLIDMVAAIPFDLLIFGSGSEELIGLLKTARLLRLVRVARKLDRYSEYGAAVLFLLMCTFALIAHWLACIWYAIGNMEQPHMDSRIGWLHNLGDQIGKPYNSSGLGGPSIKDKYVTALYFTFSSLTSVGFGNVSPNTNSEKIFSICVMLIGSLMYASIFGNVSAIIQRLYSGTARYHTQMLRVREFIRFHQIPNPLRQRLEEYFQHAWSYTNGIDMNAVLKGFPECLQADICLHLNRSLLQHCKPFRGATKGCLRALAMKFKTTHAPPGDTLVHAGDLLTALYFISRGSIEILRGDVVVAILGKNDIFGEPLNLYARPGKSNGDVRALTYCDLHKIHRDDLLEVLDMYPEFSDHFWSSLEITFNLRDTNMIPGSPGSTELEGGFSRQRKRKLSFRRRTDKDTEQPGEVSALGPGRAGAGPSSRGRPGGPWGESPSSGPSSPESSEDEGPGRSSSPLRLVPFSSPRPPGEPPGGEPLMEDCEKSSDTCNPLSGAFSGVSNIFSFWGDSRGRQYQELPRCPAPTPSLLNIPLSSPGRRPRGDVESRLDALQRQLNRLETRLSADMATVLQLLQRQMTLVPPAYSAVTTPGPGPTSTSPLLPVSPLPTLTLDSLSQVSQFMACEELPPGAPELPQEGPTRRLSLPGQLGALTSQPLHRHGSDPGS

Structure (SMILES): CN(CCOc1ccc(CC2SC(=O)NC2=O)cc1)c1ccccn1 (stereo not drawn) [ROSIGLITAZONE]
- Cmax [1]: 2960 nM

Structure (SMILES): CN(C)C(=N)N=C(N)N [METFORMIN]
- Cmax [2]: 741 nM
- Cmax [3]: 741 nM

Structure (SMILES): C[C@@H]1C[C@@H](NC(=O)c2ncc(-c3cccc(C#N)c3)o2)CN1C#N
- efflux ratio [4]: 23
- inhibition at 30 µM (hERG (KCNH2)): 30.2%

Structure (SMILES): CO[C@H]1C[C@@H]2CC[C@@H](C)[C@@](O)(O2)C(=O)C(=O)N2CCCC[C@H]2C(=O)O[C@H]([C@H](C)C[C@@H]2CC[C@@H](OCCO)[C@H](OC)C2)CC(=O)[C@H](C)/C=C(\C)[C@@H](O)[C@@H](OC)C(=O)[C@H](C)C[C@H](C)/C=C/C=C/C=C/1C [EVEROLIMUS]
- Kp [5]: 0.015

Structure (SMILES): FC(F)(F)c1cc2c(NC3CCCc4ccccc43)ncnc2[nH]1 (stereo not drawn)
- EC50 [6]: 440 nM

Structure (SMILES): c1coc(CNc2ncnc3[nH]cnc23)c1 [KINETIN]
- concentration [7]: 2970 nM
